Key:
[1] = test system: vancomycin-resistant enterococci; settings: cited from earlier work
[2] = existing composition, 1 mg/mL after dilution; cited from earlier work
[3] = Epimerization of minocycline versus tigecycline lyophilized at pH about 5.0, HPLC; assay type: physicochemical; settings: lyophilized at pH about 5.0, stored 4 days at 40° C. and 75% relative humidity
Experimental: In another experiment, minocycline was lyophilized at a pH of about 5.0 and the lyophilized cake was stored for 20 days at 40° C. and 75% relative humidity. At the end of the 20 days, the cake was analyzed by HPLC. The epimer of minocycline was measured to be present at a level of 2.65% by mass. By comparison, when tigecycline was lyophilized at a pH of about 5.0 and the sample stored under the same conditions, but for only 4 days followed by HPLC analysis, the tigecycline epimer was measured to be at a level of 5.40%, over twice as much even though tigecycline was only stressed for ⅕^th as long as minocycline. Thus, tigecycline epimerizes much more readily than minocycline, and epimerization is a much more significant problem with tigecycline than it is for minocycline.

[4] = test system: penicillin-resistant Streptococcus pneumoniae; settings: cited from earlier work
[5] = oral; cited from earlier work
[6] = pH of tigecycline dissolved in water prior to lyophilization; assay type: physicochemical
Experimental: Tigecycline has such a short admixture time and the reconstitution time is essentially zero because in solution, tigecycline oxidation is relatively rapid. Under current manufacturing, storage, and administration conditions, the most prevalent form of degradation is via oxidation. The reason oxidation is the most prevalent form of degradation in previous formulations relates to the chemical structure of tigecycline. […] When tigecycline is dissolved in water prior to lyophilization, the pH is slightly basic (about 7.8). This is higher than the pKa of the phenolic group on tigecycline. Thus, in both water and saline solutions, the phenolic group becomes deprotonated and more susceptible to reaction with oxygen which is why tigecycline compounding and lyophilization occur under a nitrogen blanket. Accordingly, care to avoid unnecessary exposure to oxygen must be taken by hospital staff during reconstitution and dilution.

[7] = test system: methicillin-resistant Staphylococcus aureus; settings: cited from earlier work
bacteria = settings: compared with tigecycline; cited from earlier work

CN(C)c1cc(NC(=O)CNC(C)(C)C)c(O)c2c1C[C@H]1C[C@H]3[C@H](N(C)C)C(O)=C(C(N)=O)C(=O)[C@@]3(O)C(O)=C1C2=O [Tigecycline]
activity against vancomycin-resistant enterococci [1]: active
time within which the diluted solution should be used [2]: ≤ 6 h
level of the tigecycline epimer [3]: 5.40%
activity against penicillin-resistant Streptococcus pneumoniae [4]: active
bioavailability when given orally [5]: generally poor
pH of solution in water [6]: about 7.8
activity against methicillin-resistant Staphylococcus aureus [7]: active

CN(C)c1cc(NC(=O)CNC(C)(C)C)c(O)c2c1C[C@H]1C[C@H]3[C@@H](N(C)C)C(O)=C(C(N)=O)C(=O)[C@@]3(O)C(O)=C1C2=O [tigecycline epimer]
anti-bacterial efficacy (bacteria): lacks the anti-bacterial efficacy of tigecycline

— patent US9694078B2, “Tigecycline compositions and methods of preparation” (priority 2005, dated 2017)
